Laboratory results from patent US4041064A, “16-Methyl prost-5-en-13-ynoic acid derivatives” (Carlo-Erba S.p.A., priority 1974, dated 1977).
Read-outs that look alike come from different tables or passages of the source.

How the values were obtained:
[1] = test system: stomach of rats; assay: Activity in vitro in the stomach of rats; details: rat stomach
[2] = test system: uterus of rats; assay: Rat uterus test in vitro (oestrogenized rat uteri)
Procedure: The rat uterus test consisted of a 10 ml thermostatic bath held at 29° C., in which oestrogenized rat uteri under 0.5 g traction were carboxygenated in a Dejalon saline solution. The preparation was left to stabilize for 30 minutes before the compounds and the standard were tested. Response was measured using a isotonic frontal lever, long enough to amplify the response 4.5 times.

[3] = test system: ileum of guinea-pigs; assay: Guinea pig ileum test in vitro
Procedure: The guinea pig ileum test consisted of a 10 ml thermostatic bath held at 35° C., containing the ileum of a male guinea pig, under 0.5 g traction, carboxygenated in a Tyrode solution; this was left for 30 minutes to stabilize before the compounds were tested. The response was recorded using a isotonic frontal lever, long enough to amplify the response 4.5 times.

[4] = test system: stress-induced gastric ulcers; assay: Inhibition of stress-induced gastric ulcers in rats (Takagi-Okabe method); format: in vivo, rat; details: anti-ulcer; for ED50: Rattus norvegicus, read-out: ED50 (Fiducial Limits For P=0.05); for Potency Ratio (Fiducial Limits For P=0.05): PGE2 = 1 (conventional value)
Text: (§1) Moreover, the compounds of the present invention are endowed with an excellent anti-ulcer activity as well as with a strong gastric anti-secretory effect, as shown by the following Tables: where the conventional value of 1 is given to the anti-ulcer and anti-secretory activity of PGE2, and where the compounds of the invention are compared also with 13,14-dehydro-PGE2, 16S-methyl-PGE2 and 16(S,R)-methyl-13,14-dehydro-PGE2.
INHIBITION OF STRESS-INDUCED GASTRIC ULCERS IN RATS (*)
(*) The ulcers are induced according to the method of Takagi-Okabe (K.
Takagi et al., Jap. J. Pharmacol., 18, 9 (1968)

[5] = test system: gastric secretion; assay: Antisecretory activity in rats (Shay method); format: in vivo, rat; details: subcutaneously; for ED50: Rattus norvegicus, sc, read-out: ED50 (Fiducial Limits For P = 0.05); for Potency Ratio (Fiducial Limits For P=0.05): PGE2 = 1 (conventional value)
Text: as §1
ANTISECRETORY ACTIVITY IN RATS (*)
(*) The antisecretory activity was studied according to H. Shay et al.,

[6] = test system: bronchospasm in guinea-pigs; assay: Anti-bronchospastic (anti-asthmatic) activity in guinea-pigs (histamine- and anaphylactic shock-induced bronchospasm); set-up: species or system guinea pig; details: in vivo and in vitro in guinea-pigs; for anti-bronchospastic activity: compared with natural PGE2; for anti-bronchospastic activity relative to natural PGE2: histamine- and anaphylactic shock-induced
Procedure: Four hours later, the same animals were treated with a spray of the test compounds at different solutions in saline, and with a spray of standard PGE2 solution. They were then given another histamine spray (0.2%) and again, the times taken for bronchospasm to appear were noted.

Structure (SMILES)	activity in vitro in the stomach of rats [1]	spasmogenic activity [2]	activity in vitro in the ileum of guinea-pigs [3]	ED50 ([4]; po, os)	ED50 ([4]; sc, subcutaneously)	Potency Ratio (Fiducial Limits For P=0.05) ([4]; os)	Potency Ratio (Fiducial Limits For P=0.05) ([4]; subcutaneously)	ED50 [5]	Potency Ratio (Fiducial Limits For P=0.05) [5]	anti-bronchospastic activity [6]	anti-bronchospastic activity relative to natural PGE2 [6]
CCCC[C@H](C)[C@H](O)C#C[C@@H]1[C@H](O)CC(=O)[C@H]1C/C=C\CCCC(=O)O (single isomer, unassigned) [16s-methyl-5c-9-oxo-11α,15S-trihydroxy-8,12-diiso-prost-5-en-13-ynoicacid]	practically devoid of any activity	excellent spasmogenic activity	practically devoid of any activity								
CCCCC[C@H](O)C#C[C@H]1[C@H](O)CC(=O)[C@@H]1C/C=C\CCCC(=O)O [13,14-dehydro-PGE2, reference compound]				0.063 mg/kg	0.043 mg/kg	9.3(4.5-19.0)	4.9(2.4-9.6)	0.055 mg/kg	2.6 (1.4-4.5)		
CCCCC(C)[C@H](O)C#C[C@H]1[C@H](O)CC(=O)[C@@H]1C/C=C\CCCC(=O)O (stereo partly drawn) [16(S,R)-methyl-13,14-dehydro-PGE2, reference compound]				0.0202 mg/kg	0.00341 mg/kg	39.8(17.1-102.1)	30.8(20.4-44.2)	0.0068 mg/kg	28.2 (18.1-41.6)		
CCCC[C@@H](C)[C@@H](O)C#C[C@H]1[C@H](O)CC(=O)[C@@H]1C/C=C\CCCC(=O)O [16R-methyl-13,14-dehydro-15-epi-PGE2, 16r-methyl-5c-9-oxo-11α,15R-dihydroxy-prost-5-en-13-ynoic acid]				0.141 mg/kg	0.0087 mg/kg	7.3(3.1-16.9)	7.4(4.8-11.1)	0.0328 mg/kg	3.8 (2.7-5.5)		
CCCC[C@@H](C)[C@H](O)C#C[C@H]1[C@H](O)CC(=O)[C@@H]1C/C=C\CCCC(=O)O [16R-methyl-13,14-dehydro-PGE2, 16r-methyl-5c-9-oxo-11α,15S-dihydroxy-prost-5-en-13-ynoic acid]				0.0098 mg/kg	0.0015 mg/kg	105.6(46.6-282.6)	43.1(28.4-64.6)	0.0026 mg/kg	48.3 (33.5-71.6)	very good anti-bronchospastic activity	four to six
CCCC[C@H](C)[C@@H](O)C#C[C@H]1[C@H](O)CC(=O)[C@@H]1C/C=C\CCCC(=O)O [16S-methyl-13,14-dehydro-15-epi-PGE2, 16s-methyl-5c-9-oxo-11α,15R-dihydroxy-prost-5-en-13-ynoic acid]				0.22 mg/kg	0.0911 mg/kg	3.8(1.75-8.4)	2.9(1.9-4.5)				
CCCC[C@H](C)[C@H](O)C#C[C@H]1[C@H](O)CC(=O)[C@@H]1C/C=C\CCCC(=O)O [16S-methyl-13,14-dehydro-PGE2, 16S-methyl-5c-9-oxo-11α,15S-dihydroxy-prost-5-en-13-ynoic acid]				0.015 mg/kg	0.0009 mg/kg	42.8(18.8-101.7)	69.8(46.4-105.2)	0.0042 mg/kg	35.7 (20.8-68.9)	very good anti-bronchospastic activity	four to six
CCCC[C@H](C)[C@H](O)/C=C/[C@H]1[C@H](O)CC(=O)[C@@H]1C/C=C\CCCC(=O)O [16S-methyl-PGE2, reference compound]				0.0242 mg/kg	0.0177 mg/kg	39.0(18.9-80.3)	12.8(9.0-17.9)	0.0112 mg/kg	13.5 (7.9-23.7)		
CCCCC[C@H](O)/C=C/[C@H]1[C@H](O)CC(=O)[C@@H]1C/C=C\CCCC(=O)O [PGE2, reference compound]				0.717 mg/kg	0.119 mg/kg			0.155 mg/kg			
